Source: patent publication US7858796B2, “Chemical compounds” (Glaxo Group Limited, priority 2004, dated 2010)

Key:
[1] = biological target: T1, Recombinant human IKKβ (residues 1-737) (Homo sapiens, UniProt O14920); assay: IKK2 Assay (TR-FRET); assay type: biochemical; conditions: IKK2 5 nM, GST-IκBα 25 nM, ATP 1 μM, 30 minutes at room temperature, read-out: pIC50 against IKK2 (converted)
T1 construct: Recombinant human IKKβ (residues 1-737); GST (C); made in house
T1 sequence (O14920 1-737): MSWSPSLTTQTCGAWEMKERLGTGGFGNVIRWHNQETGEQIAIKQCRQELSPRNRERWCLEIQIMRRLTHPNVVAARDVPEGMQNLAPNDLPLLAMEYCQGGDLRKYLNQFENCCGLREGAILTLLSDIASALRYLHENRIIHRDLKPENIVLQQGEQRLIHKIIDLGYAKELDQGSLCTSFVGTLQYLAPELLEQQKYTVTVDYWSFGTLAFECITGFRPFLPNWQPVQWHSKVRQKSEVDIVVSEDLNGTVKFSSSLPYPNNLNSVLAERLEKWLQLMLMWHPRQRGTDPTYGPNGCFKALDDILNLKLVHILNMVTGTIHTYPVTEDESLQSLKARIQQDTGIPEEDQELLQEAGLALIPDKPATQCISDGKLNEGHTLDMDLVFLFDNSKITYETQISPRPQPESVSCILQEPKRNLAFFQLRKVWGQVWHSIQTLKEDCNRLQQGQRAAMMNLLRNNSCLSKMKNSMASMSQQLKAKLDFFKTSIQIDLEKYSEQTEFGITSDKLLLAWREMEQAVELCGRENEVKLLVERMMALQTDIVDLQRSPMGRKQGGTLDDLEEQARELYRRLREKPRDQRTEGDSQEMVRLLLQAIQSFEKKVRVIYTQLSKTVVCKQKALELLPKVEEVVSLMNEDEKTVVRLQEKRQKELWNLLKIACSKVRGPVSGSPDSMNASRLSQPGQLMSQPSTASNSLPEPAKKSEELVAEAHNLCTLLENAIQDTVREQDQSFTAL
Experimental: Recombinant human IKKβ (residues 1-737) was expressed in baculovirus as a C-terminal GST-tagged fusion protein, and its activity was assessed using a time-resolved fluorescence resonance energy transfer (TR-FRET) assay. Briefly, IKK2 (5 nM final) diluted in assay buffer (50 mM HEPES, 10 mM MgCl2, 1 mM CHAPS pH 7.4 with 1 mM DTT and 0.01% w/v BSA) was added to wells containing various concentrations of compound or DMSO vehicle (3% final). The reaction was initiated by the addition of GST-IκBα substrate (25 nM final)/ATP (1 μM final), in a total volume of 30 μl. The reaction was incubated for 30 minutes at room temperature, then terminated by the addition of 15 μl of 50 mM EDTA. Detection reagent (15 μl) in buffer (100 mM HEPES pH 7.4, 150 mM NaCl and 0.1% w/v BSA) containing antiphosphoserine-IκBα-32/36 monoclonal antibody 12C2 (Cell Signalling Technology, Beverly Mass., USA) labelled with W-1024 europium chelate (Wallac OY, Turku, Finland), and an APC-labelled anti-GST antibody (Prozyme, San Leandro, Calif., USA) was added and the reaction was further incubated for 60 minutes at room temperature. The degree of phosphorylation of GST-IκBα was measured using a Packard Discovery plate reader (Perkin-Elmer Life Sciences, Pangbourne, UK) as a ratio of specific 665 nm energy transfer signal to reference europium 620 nm signal.

[2] = test system: human monocyte stimulated cytokine production (TNF-α); assay: Monocyte Assay (LPS-stimulated TNF-α production); assay type: cell-based; conditions: human CD14+ monocytes, 200 ng/mL LPS, 24 hrs, TNF-α by ELISA
Experimental: Effect of IKK-β inhibition on human monocyte stimulated cytokine production was assessed as follows: Monocytes were isolated from heparinized whole blood by Ficoll gradient, followed by purification of CD14+ cells using MACS magnetic cell separation beads. Isolated monocytes were then adhered to 96-well culture plates at 1×10^6 cells/mL in RPMI 1640 10% FBS (JRH Biosciences, Lenexa Kans.) for 2 h. to further enrich the monocyte population. The media was then removed, cells washed once with RPMI 1640, and 0.125 mL RPMI 1640 10% FBS was added to the wells. Test compounds are added to the wells 30 minutes prior to stimulation with a final vehicle concentration of 0.1% DMSO. Monocytes were activated by the addition of 200 ng/mL endotoxin (LPS; E. coli serotype 026:B6) (Sigma, St. Louis, Mo.) and incubated for 24 hrs at 37 C. Cell-free supernates were analyzed by ELISA for TNF-α using Pharmingen matched pair Abs. Viability of the cells was determined by10% trypan blue exclusion.

NC(=O)c1cc(-c2ccccc2)cc2c(C3CCN(S(=O)(=O)CCNCC4CCCCC4)CC3)c[nH]c12 [Example 38]
IC50 [1]: ≤ 10 µM

NC(=O)c1cc(-c2ccccc2)cc2c(C3CCN(S(=O)(=O)CCOCC4CCOC4)CC3)c[nH]c12 (stereo not drawn) [Example 200]
IC50 [1]: ≤ 10 µM
IC50 [2]: < 10 µM

COCCCS(=O)(=O)N1CCC(c2c[nH]c3c(C(N)=O)cc(-c4cccc(CNCCN5CCCCC5)c4)cc23)CC1 [Example 249]
IC50 [1]: > 25.1 µM

NC(=O)c1cc(-c2ccccc2)cc2c(C3CCN(S(=O)(=O)c4ccc(CNCc5ccccc5)s4)CC3)c[nH]c12 [Example 271, 5-phenyl-3-{1-[(5-{[(phenylmethyl)amino]methyl}-2-thienyl)sulfonyl]-4-piperidinyl}-1H-indole-7-carboxamide]
IC50 [2]: < 10 µM

CC(=O)Nc1nc(C)c(S(=O)(=O)N2CCC(c3c[nH]c4c(C(N)=O)cc(-c5ccccc5)cc34)CC2)s1 [Example 272, 3-(1-{[2-(acetylamino)-4-methyl-1,3-thiazol-5-yl]sulfonyl}-4-piperidinyl)-5-phenyl-1H-indole-7-carboxamide]
IC50 [2]: < 10 µM

Cc1nn(C)c(Cl)c1S(=O)(=O)N1CCC(c2c[nH]c3c(C(N)=O)cc(-c4ccccc4)cc23)CC1 [Example 273, 3-{1-[(5-chloro-1,3-dimethyl-1H-pyrazol-4-yl)sulfonyl]-4-piperidinyl}-5-phenyl-1H-indole-7-carboxamide]
IC50 [2]: < 10 µM

NC(=O)c1cc(-c2ccccc2)cc2c(C3CCN(S(=O)(=O)c4ccc5nonc5c4Cl)CC3)c[nH]c12 [Example 274, 3-{1-[(4-chloro-2,1,3-benzoxadiazol-5-yl)sulfonyl]-4-piperidinyl}-5-phenyl-1H-indole-7-carboxamide]
IC50 [2]: < 10 µM

Cc1nc(S(=O)(=O)N2CCC(c3c[nH]c4c(C(N)=O)cc(-c5ccccc5)cc34)CC2)cn1C [Example 275, 3-{1-[(1,2-dimethyl-1H-imidazol-4-yl)sulfonyl]-4-piperidinyl}-5-phenyl-1H-indole-7-carboxamide]
IC50 [2]: < 10 µM

Cc1nn(C)c(C)c1S(=O)(=O)N1CCC(c2c[nH]c3c(C(N)=O)cc(-c4ccccc4)cc23)CC1 [Example 276, 5-phenyl-3-{1-[(1,3,5-trimethyl-1H-pyrazol-4-yl)sulfonyl]-4-piperidinyl}-1H-indole-7-carboxamide]
IC50 [2]: < 10 µM

Cc1noc(C)c1S(=O)(=O)N1CCC(c2c[nH]c3c(C(N)=O)cc(-c4ccccc4)cc23)CC1 [Example 277, 3-{1-[(3,5-dimethyl-4-isoxazolyl)sulfonyl]-4-piperidinyl}-5-phenyl-1H-indole-7-carboxamide]
IC50 [2]: < 10 µM

Cc1nc(C)c(S(=O)(=O)N2CCC(c3c[nH]c4c(C(N)=O)cc(-c5ccccc5)cc34)CC2)s1 [Example 278, 3-{1-[(2,4-dimethyl-1,3-thiazol-5-yl)sulfonyl]-4-piperidinyl}-5-phenyl-1H-indole-7-carboxamide]
IC50 [2]: < 10 µM

Cc1ncc(S(=O)(=O)N2CCC(c3c[nH]c4c(C(N)=O)cc(-c5ccccc5)cc34)CC2)n1C [Example 279, 3-{1-[(1,2-dimethyl-1H-imidazol-5-yl)sulfonyl]-4-piperidinyl}-5-phenyl-1H-indole-7-carboxamide]
IC50 [2]: < 10 µM

Cn1cnc(S(=O)(=O)N2CCC(c3c[nH]c4c(C(N)=O)cc(-c5ccsc5)cc34)CC2)c1 [Example 280, 3-{1-[(1-methyl-1H-imidazol-4-yl)sulfonyl]-4-piperidinyl}-5-(3-thienyl)-1H-indole-7-carboxamide]
IC50 [2]: < 10 µM

NC(=O)c1cc(-c2ccccc2)cc2c(C3CCN(S(=O)(=O)c4ccsc4)CC3)c[nH]c12 [Example 311, 5-phenyl-3-[1-(3-thienylsulfonyl)piperidin-4-yl]-1H-indole-7-carboxamide]
IC50 [2]: < 10 µM
